Each structure is given as a SMILES string.

The values below come from patent US20250340510A1, “Substituted Phenylbenzenesulfonamide Derivatives and Uses Thereof” (Nine Square Therapeutics Corporation, priority 2022, published 2025).

One assay addresses TRPML1 (Homo sapiens, UniProt Q9GZU1). Kind of assay: Calcium flux in HEK293 overexpressing TRPML1 plasma membrane variant (FLIPR, Calcium 6 dye). Type of assay: cell-based. To be noted: HEK293/TRPML1-PM clone A5 cells; 4-parameter logistic fit; read-out: TRPML1 calcium flux (FLIPR) dose response: EC50. In a few lines: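 HEK293 clone expressing plasma-membrane-targeted TRPML1 (N- and C-terminal dileucine motifs deleted), loaded with Calcium 6 dye for 2 h at 37 °C in HBSS/20 mM HEPES pH 7.4. Fluorescence recorded 10 s baseline then 170 s after compound addition. Max-minus-min response over baseline fitted by 4-parameter logistic for EC50.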
A general note: Calcium flux is commonly read through the fluorescence of an indicator in the cells.

The test system of the next assay is TFEB. Kind of assay: TFEB translocation assay in HeLa cells (nuclear to cytoplasmic TFEB ratio, high-content imaging). Type of assay: cell-based. The settings on record: Homo sapiens, 1.5 h, 90 mins incubation at 37° C., ratio of nuclear to cytoplasmic TFEB. The method, then:
Example B2. TFEB Translocation Assay
Rabbit TFEB antibody, Cell Signaling Technology #4240S
PFA 16% MeOH-free, Election Microscopy Sciences #50-980-487
HCS CellMask Deep Red, ThermoFisher Scientific #H32721
Plates: Perkin Elmer Phenoplate #605730 black optically clear, tissue culture treated 384-well plate
Example B2.2 Method, Day 1: Cells Seeded in 384WP
Cells were seeded in the afternoon. The outer one row of the plate was not used to avoid outer well edge effects.
HeLa cells were detached using trypsin, and the cells were counted using a cell counter.
4000 HeLa cells were seeded per well in […] growth media (DMEM with 10% FBS, 1 mM sodium pyruvate and Pen-Strep).
Example B2.3 Method, Day 2: Assay with TRPML1 Compounds+Staining
Compounds were added to cells using a Tecan D300e dispenser.
Cells were incubated for 90 mins at 37° C. with the compounds (compound range: 80 nM-[…] (2× step dilution—8 dilution steps, 3 replicates per condition)
The cells were fixed by adding 16.5 μL of 16% PFA (4% final) and incubating for 15 min at room temperature.
The cells were washed with 3× in PBS-TX (PBS+0.1% Triton X-100)−1×100 μL followed by 2×50 μL.
The cells were blocked and permeabilized in 30 μL of blocking buffer (PBS-TX+5% goat serum) for 1 h.
The cells were incubated with TFEB antibody (1:200, CST 4240S) in 30 μL blocking buffer overnight at 4° C. The plates were kept damp to avoid evaporation.
Example B2.4 Method, Day 3: Staining+Imaging
The cells were washed 3× in PBS-TX—3×100 μL with a Biotek EL406 washer.
The cells were incubated with Goat anti-Rb Alexa-Fluor 488 (1:2000), cell mask (1:10,000) and Hoechst (1:10,000) in 30 μL blocking buffer for 1 h at room temperature. The solution was dispensed using a 5 μL peristaltic cassette (EL406).
The cells were washed 3× in PBS-TX—3×100 μL with a EL406 washer, then […] PBS was dispensed using a 5 μL peristaltic cassette (EL406).
The cells were imaged on an Operetta CLS High-content imaging system using a 20× water immersion objective (NA 1.0) the same day.
Image analysis was performed using Harmony V4.9 (Perkin Elmer). Briefly, nuclei were segmented from background-corrected images using Hoechst intensity, and cell body segmented using HCS CellMask DeepRed. A sliding parabola filter was applied to the AlexaFluor 488 channel (TFEB), before sum pixel intensity in the nuclear and cytoplasmic regions was calculated. A ratio of nuclear to cytoplasmic TFEB was used to define TFEB translocation from the cytosolic to nuclear compartment. The EC50 values derived by fitting the data to a sigmoidal dose response curve using Prism 9 (Graphpad).

Chain of TRPML1 (Q9GZU1 17-572 limits assumed): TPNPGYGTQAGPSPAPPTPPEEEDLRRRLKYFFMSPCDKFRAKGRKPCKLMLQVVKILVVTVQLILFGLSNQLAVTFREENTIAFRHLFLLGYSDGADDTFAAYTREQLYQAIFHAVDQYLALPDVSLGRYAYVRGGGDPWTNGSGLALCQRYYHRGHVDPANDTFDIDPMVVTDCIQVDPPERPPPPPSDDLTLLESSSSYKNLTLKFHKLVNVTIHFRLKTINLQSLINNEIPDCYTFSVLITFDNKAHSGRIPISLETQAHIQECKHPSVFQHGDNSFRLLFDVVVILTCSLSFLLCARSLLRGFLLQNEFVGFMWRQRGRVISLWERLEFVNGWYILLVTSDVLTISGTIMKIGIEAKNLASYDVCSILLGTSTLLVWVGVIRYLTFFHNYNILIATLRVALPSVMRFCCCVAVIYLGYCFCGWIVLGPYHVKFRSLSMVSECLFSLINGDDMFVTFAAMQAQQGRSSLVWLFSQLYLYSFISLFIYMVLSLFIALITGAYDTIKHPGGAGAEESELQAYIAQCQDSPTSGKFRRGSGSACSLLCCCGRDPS

As usually defined, the EC50 is the concentration at which the effect is half-maximal. On to `CN(c1ccccc1NS(=O)(=O)c1ccc(S(=O)(=O)N(C)C)cc1)C1CCOC1(C)C` (stereo not drawn) [Compound 97, N1-(2-((2,2-dimethyltetrahydro-furan-3-yl)(methyl)amino)phenyl)-N4,N4-dimethylbenzene-1,4-disulfonamide], for which the results for the EC50 on TRPML1 and in the assay with TFEB (HeLa) were 0.347 µM and 0.516 µM, respectively.
The corresponding values for `Cc1cccc(NS(=O)(=O)c2ccc(S(=O)(=O)N(C)C)cc2)c1N(C)C1CCCCC1` [Compound 98, N1-(2-(cyclohexyl(methyl)amino)-3-methylphenyl)-N4,N4-dimethylbenzene-1,4-disulfonamide] are 0.0466 µM and 0.117 µM.
On to `CN(c1ccccc1NS(=O)(=O)c1ccc(S(=O)(=O)N(C)C)cc1)C1CCC(F)(F)C1` (stereo not drawn) [Compound 99, N1-(2-((3,3-difluorocyclopentyl) (methyl)amino)phenyl)-N4,N4-dimethylbenzene-1,4-disulfonamide], for which the values for the EC50 at TRPML1 and in the assay with TFEB (HeLa) were 0.433 µM and 0.573 µM, respectively.
Regarding `[2H]C([2H])([2H])N(c1ccccc1NS(=O)(=O)c1ccc(S(=O)(=O)N(C)C)cc1)C1CCCCC1` [Compound 102, N1-(2-(cyclohexyl(methyl-d3)amino)phenyl)-N4,N4-dimethylbenzene-1,4-disulfonamide], the values for the EC50 on TRPML1 and in the assay with TFEB (HeLa) were 0.412 µM and 0.388 µM, respectively.
Take `CN(c1ccccc1NS(=O)(=O)c1ccc(S(=O)(=O)N(C)C)cc1)C1CCCC(F)(F)C1` (stereo not drawn) [Compound 104, N1-(2-((3,3-difluorocyclohexyl) (methyl)amino)phenyl)-N4,N4-dimethylbenzene-1,4-disulfonamide]: the EC50 was determined as 0.715 µM at TRPML1 and 0.573 µM in the assay with TFEB (HeLa).
As for `CN(CC1CCC1)c1ccccc1NS(=O)(=O)c1ccc(S(=O)(=O)N(C)C)cc1` [Compound 106, N1-(2-((cyclobutylmethyl)(methyl)amino)phenyl)-N4,N4-dimethylbenzene-1,4-disulfonamide], the EC50 is 0.371 µM on TRPML1 and 0.464 µM with TFEB (HeLa).
The corresponding values for `CN(CC1CCCCO1)c1ccccc1NS(=O)(=O)c1ccc(S(=O)(=O)N(C)C)cc1` (stereo not drawn) [Compound 108, N1,N1-dimethyl-N4-(2-(methyl((tetrahydro-2H-pyran-2-yl)methyl)amino)phenyl)benzene-1,4-disulfonamide] are 0.79 µM and 0.431 µM.
On to `CN(c1ccc(C(F)(F)F)cc1NS(=O)(=O)c1ccc(S(=O)(=O)N(C)C)cc1)C1CCCCC1` [Compound 110, N1-(2-(cyclohexyl(methyl)amino)-5-(trifluoromethyl)phenyl)-N4,N4-dimethylbenzene-1,4-disulfonamide], for which the EC50 is 0.256 µM at TRPML1 and 0.246 µM in the assay with TFEB.
As to `CN(c1ccccc1NS(=O)(=O)c1ccc(S(=O)(=O)N(C)C)cc1)C1CCOC(C)(C)C1` (stereo not drawn) [Compound 111, N1-(2-((2,2-dimethyltetrahydro-2H-pyran-4-yl)(methyl)amino)phenyl)-N4,N4-dimethylbenzene-1,4-disulfonamide], the half-maximal effective concentration (EC50) at TRPML1 was determined as 0.812 µM; in the assay on TFEB (HeLa), 3.29 µM.
With `CN(c1ccccc1NS(=O)(=O)c1ccc(S(=O)(=O)N(C)C)cc1)C12CC(C)(C1)C2` [Compound 115, N1,N1-dimethyl-N4-(2-(methyl(3-methylbicyclo[1.1.1]pentan-1-yl)amino)phenyl) benzene-1,4-disulfonamide], the EC50 on TRPML1 was 1.1 µM; in the assay with TFEB (HeLa), 0.758 µM.
The corresponding values for `Cc1ccc(N(C)C2CCCCC2)c(NS(=O)(=O)c2ccc(S(=O)(=O)N(C)C)cc2)c1` [Compound 117, N1-(2-(cyclohexyl(methyl)amino)-5-methylphenyl)-N4,N4-dimethylbenzene-1,4-disulfonamide] are 0.353 µM and 0.0837 µM.
For the compound `CN(c1ccccc1NS(=O)(=O)c1ccc(S(=O)(=O)N(C)C)cc1)C1CCCCC1` [Compound 118, N1-(2-(cyclohexyl(methyl)amino)phenyl)-N4,N4-dimethylbenzene-1,4-disulfonamide], the EC50 was 0.276 µM on TRPML1 and 0.529 µM in the assay on TFEB (HeLa).
